Data as given in PubChem BioAssay AID720588 (Broad Institute, 2013).
Calls of active or inactive are those of the source.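 How the source made its calls: active means fitted curve falls past a set limit of signal loss at no more than twice the top dose; inconclusive means flat fit between 30 and 70% signal loss, or poor fit; inactive means signal rise, flat within 30%, or crossing too high.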

test: ATP-based viability loss in HEK293T cells – cell-based, CellTiter-Glo luminescence, cherry-pick, set 3, cytotoxicity control, dose response (AID 720588); conditions: HEK293T viability, CellTiter-Glo ATP luminescence, 72 h; at 21 µM (top of the series)

| SMILES | activity change, negative = cytotoxicity |
| --- | --- |
| C[C@H]1CN([C@@H](C)CO)C(=O)Cc2cc(NC(=O)CCC(F)(F)F)ccc2O[C@H]1CN(C)Cc1ccc(C(=O)Nc2ccccc2N)cc1 | -31.3% (inactive) |
| COc1ccc(CN(C)C[C@H]2Oc3ccc(NC(=O)CCCCCC(=O)Nc4ccccc4N)cc3CC(=O)N([C@H](C)CO)C[C@H]2C)cc1 | -29.4% (inactive) |

same assay, conditions: HEK293T viability, CellTiter-Glo ATP luminescence, 72 h; at 23.5 µM (top of the series)

| SMILES | activity change, negative = cytotoxicity |
| --- | --- |
| N#C[C@H]1N[C@H](CO)[C@H]1c1ccc(C#Cc2ccccc2F)cc1 | -11.8% (inactive) |
| COC(=O)C[C@@H]1CC[C@@H]2[C@@H](COc3ccc(NC(=O)Nc4cccc(Cl)c4)cc3C(=O)N2C)O1 | 4.77% (inactive) |

same assay, conditions: HEK293T viability, CellTiter-Glo ATP luminescence, 72 h; at 26 µM (top of the series)

| SMILES | activity change, negative = cytotoxicity |
| --- | --- |
| C[C@@H]1CCCCO[C@@H](CN(C)C(=O)Cc2ccccc2)[C@@H](C)CN([C@@H](C)CO)C(=O)c2cc(NS(=O)(=O)c3ccc(F)cc3)ccc2O1 | 4.58% (inactive) |
| C[C@@H]1CN([C@H](C)CO)C(=O)c2cc(NS(=O)(=O)c3ccc(Cl)cc3)ccc2O[C@@H]1CN(C)Cc1ccc(Cl)c(Cl)c1 | -9.51% (inactive) |
| CCc1cnc(N2[C@H](C#N)[C@H](c3ccc(C#Cc4ccccc4F)cc3)[C@H]2CO)s1 | -15.3% (inactive) |
| O=C1C(=O)N(Cc2cccs2)c2ccccc21 | -25.8% (inactive) |
| Cc1ccc(S(=O)(=O)N(C)C[C@H]2Oc3c(cccc3N(C)C)C(=O)N([C@@H](C)CO)C[C@@H]2C)cc1 | -21% (inactive) |
| Cc1ccc(/C=C2\SC(=S)N(CCC(=O)NNC(=O)c3ccccc3O)C2=O)cc1 | 24.1% (inactive) |
| CC(C)Oc1ccc(Br)cc1C(=O)N/N=C/c1c[nH]c2ccccc12 | -16.4% (inactive) |
| CCn1c(/C=N/NC(=O)c2ccc(OC)cc2)nc2ccccc21 | -10.9% (inactive) |
| Cc1nn(-c2ccc(F)cc2)c2nc(N)c(C#N)c(-c3ccc(O)c(O)c3)c12 | -12.7% (inactive) |
| O=C(CN1C(=O)C(=O)c2ccccc21)c1ccc(Cl)cc1 | -23.4% (inactive) |
| COC(=O)C[C@@H]1CC[C@@H]2[C@H](COc3ccc(NC(=O)c4ccc(F)cc4)cc3C(=O)N2C)O1 | 76.4% (inactive) |
| C/C=C/c1ccc([C@H]2[C@@H](CO)N3C(=O)CN(S(=O)(=O)c4cccc(F)c4)C[C@@H]23)cc1 | 34.3% (inactive) |
| COc1cc(/C=C/C(=O)CC(=O)/C=C/c2ccc(O)c(OC)c2)ccc1O | -41.3% (inactive) |
| C/C(=N\N(c1ccccc1)c1ccccc1)c1ccco1 | -14.9% (inactive) |
| CCCc1cc(=O)oc2c3c(c4c(c12)OC(C)(C)C=C4)OC(C)C(C)C3O (centres undefined) | -7.17% (inactive) |
| Cc1ccc(NC(=O)COC(=O)c2ccc3c(c2)OCO3)cc1S(=O)(=O)N1CCCCC1 | -15.5% (inactive) |
| C[C@H]1CN([C@@H](C)CO)C(=O)c2cccc(NC(=O)c3ccc(-c4nccs4)cc3)c2O[C@@H]1CN(C)Cc1ccc(C(=O)Nc2ccccc2N)cc1 | 28.9% (inactive) |
| COc1ccc(/C=C2/SC(=S)N(CCCC(=O)Nc3ccccc3C(=O)O)C2=O)cc1 | -21% (inactive) |
| O=C(O)c1ccc(N/N=C/c2c[nH]c3ccccc23)cc1 | 6.31% (inactive) |
| O=C(NCc1cccnc1)C1Cc2c(-c3ccc(Cl)cc3)ccnc2O1 (centres undefined) | -17.5% (inactive) |
| O=C(/C=C/c1ccc(Cl)cc1Cl)N(Cc1ccc(Cl)cc1)C1CCS(=O)(=O)C1 (centres undefined) | -14.5% (inactive) |
| CCOc1ccc(/C=C2\CCc3ccccc3C2=O)cc1 | -4.04% (inactive) |
| Cc1ccccc1NC(=O)C(=Cc1ccc(C(=O)O)cc1)C(=O)Nc1ccccc1C | -47.2% (inactive) |
| C[C@@H]1CN([C@@H](C)CO)C(=O)c2cccc(NS(=O)(=O)c3ccc(F)cc3)c2O[C@@H]1CN(C)Cc1ccc(C(=O)Nc2ccccc2N)cc1 | -33.3% (inactive) |

| SMILES | activity change, negative = cytotoxicity |
| --- | --- |
| O=c1[nH]c(=O)n(C2C[C@H](O)[C@@H](CO)O2)cc1C(F)(F)F (some centres undefined) | -9.97% (inactive) |
| O=C1C(=O)N(CCS(=O)(=O)c2ccccc2)c2ccc(Cl)cc21 | -2.19% (inactive) |
| CCCn1c(C)cc(C(=O)CN2C(=O)c3ccccc3S2(=O)=O)c1C | 4.1% (inactive) |
| Cc1cc(C)cc(C(=O)NC(=S)Nc2ccc(Cc3ccncc3)cc2)c1 | -25.9% (inactive) |
| COc1ccccc1NS(=O)(=O)c1cc(NC(=O)c2cc3ccccc3oc2=O)ccc1C | -6.46% (inactive) |
| Cc1ccc(/C=C2\SC(=S)N(CCCC(=O)NNC(=O)c3ccccc3O)C2=O)cc1 | -14.6% (inactive) |
| C[C@@H]1CN([C@@H](C)CO)S(=O)(=O)c2ccc(C#Cc3ccncc3)cc2O[C@H]1CN(C)C(=O)C1CCOCC1 | 19.2% (inactive) |
| Cc1c(N=Cc2cc(Br)cc(Br)c2O)cccc1C(=O)O | 6.56% (inactive) |
| C[C@H](CO)N1C[C@H](C)[C@H](CN(C)Cc2ccc(C(=O)Nc3ccccc3N)cc2)Oc2ccc(N(C)C)cc2C1=O | -25.7% (inactive) |
| COC(=O)Cc1ccc(NC(=O)c2ccccc2Cl)cc1 | -2.38% (inactive) |
| O=c1c2ccccc2oc2ccc(C#CC3(O)CCCCC3)cc12 | -6.65% (inactive) |
| CC(C)NC(=O)N(C)C[C@@H]1Oc2cc(C#Cc3ccc(F)cc3)ccc2S(=O)(=O)N([C@H](C)CO)C[C@H]1C | -0.81% (inactive) |
| Cc1c(CCOC(=O)CC23CC4CC(CC(C)(C4)C2)C3)sc[n+]1CC(=O)c1ccccc1 | 12.1% (inactive) |
| CC(=O)c1ccc(N=C2C(=O)Nc3ccccc32)cc1 | -11.5% (inactive) |
| Brc1ccc(CSc2nnc(-c3ccco3)o2)cc1 | -18% (inactive) |
| COC(=O)C[C@H]1C=C[C@@H](NC(=O)Nc2ccc(C(F)(F)F)cc2)[C@H](CO)O1 | 4.22% (inactive) |
| c1ccc(-c2ccc([C@H]3[C@H]4CNC[C@@H]3N4Cc3cc(-c4ccccc4)on3)cc2)cc1 | 26.6% (inactive) |
| O=C(CN1C(=O)c2ccccc2S1(=O)=O)c1ccc(F)cc1 | 6.26% (inactive) |
| COc1ccc(Nc2ncnc3ccc(Br)cc23)c(OC)c1 | -18.8% (inactive) |
| Cc1ccc(C(C(=O)NCc2ccco2)N(C(=O)CNC(=O)c2cccs2)c2c(C)cc(C)cc2C)cc1 (centres undefined) | -19.4% (inactive) |
| O=C(NC(c1ccc(F)cc1)c1ccc2ccccc2n1)C1CCN(Cc2cccc(C(F)(F)F)c2)CC1 (centres undefined) | -38.4% (inactive) |
| C/C(=N\OCc1cccc(C(=O)O)c1)c1ccc(Cl)cc1 | -6.62% (inactive) |
| C(=N\Nc1ccc2ccccc2n1)/c1ccc2c(c1)OCO2 | -17.5% (inactive) |
| CCCCN=C(NNc1ccc(Br)cc1)C(=O)OCC | -39.4% (inactive) |

| SMILES | activity change, negative = cytotoxicity |
| --- | --- |
| Cc1c(Cl)cnc(NC(=O)COC(=O)c2ccc3ncsc3c2)c1Cl | 13.6% (inactive) |
| CCn1c(C)cc(C(=O)CN2C(=O)c3ccccc3S2(=O)=O)c1C | -4.24% (inactive) |
| CCc1ccc(S(=O)(=O)c2ccc(-n3nc(C)cc3N)cc2)cc1 | -6.44% (inactive) |
| Cc1noc(C)c1NC(=O)Nc1ccc2c(c1)CC(=O)N([C@H](C)CO)C[C@@H](C)[C@@H](CN(C)Cc1ccc(Cl)c(Cl)c1)O2 | 56.7% (inactive) |
| COc1cc(-c2cnc3c(NC=O)cc(-c4cccc(NC(C)=O)c4)cn23)cc(OC)c1OC | 27.3% (inactive) |
| CC(=O)c1ccc(NC(=O)c2noc3c2CCC3)cc1 | -5.3% (inactive) |
| Nc1sc(-c2ccccc2)cc1-c1n[nH]c(=S)n1C1CCCCC1 | -4.9% (inactive) |
| Cc1ccsc1/C=N/Nc1ccc(C(=O)O)cc1 | -12.7% (inactive) |
| Cc1ccc(Cc2c(-c3ccco3)nc3c(C)cc(Br)cn23)cc1 | 15.5% (inactive) |
| COC(=O)C[C@H]1CC[C@@H](NC(=O)Nc2ccc(C(F)(F)F)cc2)[C@H](CO)O1 | 9.14% (inactive) |
| c1cncc(-c2ccc([C@@H]3[C@H]4CNC[C@@H]3N4CC3CCOCC3)cc2)c1 | 61.9% (inactive) |
| CCOc1ccc(NC(=O)C(=O)N/N=C\c2ccc(CNS(=O)(=O)c3ccccc3)o2)cc1 | -24.2% (inactive) |
| COc1ccc(C(=O)NCCNc2nc3cc(C)cc(C)c3cc2C#N)c(OC)c1 | -16.7% (inactive) |
| O=C(C1CC1)N1C[C@@H]2N[C@H](C1)C2c1ccc(/C=C/c2ccccc2)cc1 (some centres undefined) | -31.7% (inactive) |
| COCCOC(=O)N1C(=O)[C@@]2(c3cc(C#CCC(C(=O)OC)C(=O)OC)ccc31)[C@H](c1ccccc1OCCO)N1[C@H](c3ccccc3)[C@H](c3ccccc3)OC(=O)[C@H]1[C@@H]2C(=O)N1CCN(c2ncccn2)CC1 | 28.9% (inactive) |
| COc1cc(-c2coc3c(C(=O)NCc4ccc(C(F)(F)F)cc4)cccc23)ccc1O | -23% (inactive) |
| O=C(O)CN1C(=O)/C(=C\c2ccccc2OCc2ccc(Cl)cc2Cl)SC1=S | 4.7% (inactive) |
| Cc1ccc(S(=O)(=O)N(C)C[C@@H]2Oc3cc(C#Cc4ccncc4)ccc3S(=O)(=O)N([C@@H](C)CO)C[C@H]2C)cc1 | -17% (inactive) |
| COc1ccc(C(=O)Nc2cccc(C(=O)N/N=C/c3ccc(OC)cc3OC)c2)cc1 | -15.7% (inactive) |
| CN(C)c1ncnc2c1ccn2C1OC(CO)C(O)C1O (centres undefined) | -37% (inactive) |
| CCOc1cc2[nH]c(=S)n(Cc3ccc(C(=O)N4CCN(C)CC4)cc3)c(=O)c2cc1OCC | -20.5% (inactive) |
| COc1ccc(/C=C2\SC(=S)N(CCCC(=O)NC3CCCC3)C2=O)cc1OC | -24.3% (inactive) |
